In this assay the test system is Mouse embryonic stem cells. Nature of the assay: Mouse ES cells keep pluripotency under differentiation medium (DM). Particulars: Embryonic stem cell, 144 h, measured by maintenance of GFP expression and colony morphology, differentiation medium (BM+0.3 μM RA or DMEM, 20% FBS), 3 + 3 days incubation. The class given is cell-based. From the text: Materials used for ES cell maintenance, and examples 4 & 5, infra, include: Oct4-GFP mES cells (feeder layer dependent cells); mES R1 cells (feeder layer independent cells); DMEM (GIBCO, 11965-084); Kouckout DMEM (KO DMEM) (GIBCO, 10829-018); DMEM/F12 (GIBCO, 11330-032); Fetal Bovine Serum (FBS) (GIBCO, 26140-079); Knockout Serum Replacer (KO-SR), (GIBCO, 10828-028); B-27 Serum-free Supplement (50X), (GIBCO017504-044); N-2 Supplement (100X) (GIBCO, 17502-048); LIF (10^6 units) (Chemicon, ESG1106); L-Glutamine (GIBCO, 25030-081); Non-essential amino acids (GIBCO, 11140-050); 2-Mercaptoethanol (1000X), (GIBCO, 21985-023); 0.05% Trypsin-EDTA (GIBCO, 25300-054); 0.1% gelatin solution (Stemcell tech., 07903); Basal medium (BM): KO DMEM, 15% KO-SR, 1X L-glutamine, 1X non-essential amino acid, 1×2-mercaptoethanol; and Growth medium (GM): Basal medium+10^3 unit LIF.
DM induced by retinoic acid (RA): BM+0.3 μM RA, DM induced by FBS: DMEM, 20% FBS. Ninety-six well plates are coated with 0.1% gelatin solution at 37° C. overnight. The gelatin solution is removed by aspiration. Mouse embryonic stem cells are plated on gelatin-coated plates at 10^4 cells/50 μl GM/well. After overnight incubation, the medium is changed to DM and 3 μM of a compound of the invention is added to each well. After 3 days incubation, the medium is replaced with fresh medium and compound. After a further 3 days, the cells are fixed and assayed with pluripotent markers expression and colony morphology. An effective concentration is measured by the maintenance of GFP expression and colony morphology. A list of effective concentrations for various compounds of the invention is disclosed in table 3, infra
Usually minimal effective concentration stands for the lowest level tested that produced the effect sought. `Cc1ccc(NC(=O)c2cccc(C(F)(F)F)c2)cc1N1Cc2cnc(Nc3cccc(O)c3)nc2N(C)C1=O` [N-{3-[7-(3-Hydroxy-phenylamino)-1-methyl-2-oxo-1,4-dihydro-2H-pyrimido[4,5-d]pyrimidin-3-yl]-4-methyl-phenyl}-3-trifluoromethyl-benzamide]: the minimal effective concentration turned out to be 1 µM.

Take `CCn1nccc1Nc1ncc2c(n1)N(C)C(=O)N(c1cc(NC(=O)c3cccc(C(F)(F)F)c3)ccc1C)C2` [N-{3-[7-(2-Ethyl-2H-pyrazol-3-ylamino)-1-methyl-2-oxo-1,4-dihydro-2H-pyrimido[4,5-d]pyrimidin-3-yl]-4-methyl-phenyl}-3-trifluoromethyl-benzamide]: the minimal effective concentration is 2 µM.

For `CCNc1ncc2c(n1)N(C)C(=O)N(c1cc(NC(=O)c3cccc(C(F)(F)F)c3)ccc1C)C2` [N-[3-(7-Ethylamino-1-methyl-2-oxo-1,4-dihydro-2H-pyrimido[4,5-d]pyrimidin-3-yl)-4-methyl-phenyl]-3-trifluoromethyl-benzamide], the minimal effective concentration amounted to 10 µM.

As for `Cc1ccc(NC(=O)c2cccc(C(F)(F)F)c2)cc1N1Cc2cnc(Nc3cccc(N)c3)nc2N(C)C1=O` [N-{3-[7-(3-Amino-phenylamino)-1-methyl-2-oxo-1,4-dihydro-2H-pyrimido[4,5-d]pyrimidin-3-yl]-4-methyl-phenyl}-3-trifluoromethyl-benzamide], the minimal effective concentration was 2 µM.

On to `Cc1cc(Nc2ncc3c(n2)N(C)C(=O)N(c2cc(NC(=O)c4cccc(C(F)(F)F)c4)ccc2C)C3)n(C)n1` [N-{3-[7-(2,5-Dimethyl-2H-pyrazol-3-ylamino)-1-methyl-2-oxo-1,4-dihydro-2H-pyrimido[4,5-d]pyrimidin-3-yl]-4-methyl-phenyl}-3-trifluoromethyl-benzamide], for which the minimal effective concentration was 1 µM.

For the molecule `Cc1cc(Nc2ncc3c(n2)N(C)C(=O)N(c2cc(NC(=O)c4cccc(C(F)(F)F)c4)ccc2C)C3)cc(C)n1` [N-{3-[7-(2,6-Dimethyl-pyridin-4-ylamino)-1-methyl-2-oxo-1,4-dihydro-2H-pyrimido[4,5-d]pyrimidin-3-yl]-4-methyl-phenyl}-3-trifluoromethyl-benzamide], the minimal effective concentration was 5 µM.

On to `Cc1ccc(NC(=O)c2cccc(C(F)(F)F)c2)cc1N1Cc2cnc(Nc3ccnn3C)nc2N(C)C1=O` [N-{4-Methyl-3-[1-methyl-7-(2-methyl-2H-pyrazol-3-ylamino)-2-oxo-1,4-dihydro-2H-pyrimido[4,5-d]pyrimidin-3-yl]-phenyl}-3-trifluoromethyl-benzamide], for which the minimal effective concentration turned out to be 1 µM.

Consider `CNc1ncc2c(n1)N(C)C(=O)N(c1cc(NC(=O)c3cccc(C(F)(F)F)c3)ccc1C)C2` [N-[4-Methyl-3-(1-methyl-7-methylamino-2-oxo-1,4-dihydro-2H-pyrimido[4,5-d]pyrimidin-3-yl)-phenyl]-3-trifluoromethyl-benzamide], for which the minimal effective concentration was determined as 3 µM.

On to `Cc1ccc(NC(=O)c2cccc(C(F)(F)F)c2)cc1N1Cc2cnc(Nc3cccc(NS(C)(=O)=O)c3)nc2N(C)C1=O` [N-{3-[7-(3-Methanesulfonylamino-phenylamino)-1-methyl-2-oxo-1,4-dihydro-2H-pyrimido[4,5-d]pyrimidin-3-yl]-4-methyl-phenyl}-3-trifluoromethyl-benzamide], for which the minimal effective concentration amounted to 2 µM.

The values are drawn from patent US20100234400A1, “COMPOUNDS THAT MAINTAIN PLURIPOTENCY OF EMBRYONIC STEM CELLS” (IRM LLC, priority 2005, published 2010).
